The text below walks through data of US10555986B2, “Dietary supplement derived from natural prodcuts by hot melt extrusion (HME) processing” (INSTITUTO DE CAPACITACIÓN E INVESTIGACIÓN DEL PLÁS, priority 2017, dated 2020).

Series [1] in a line: release profile of (−)-Epicatechin in artificial saliva at pH 6.2 and 23° C. The class given is physicochemical. To be noted: artificial saliva pH 6.2, 23° C. The method, then: FIG. 20 describes the release profile of (−)-Epicatechin in artificial saliva at pH 6.2 and 23° C. for examples X to XIII with a particle size distribution between 250 μm and 425 μm (Mesh 40).
FIG. 21 illustrates the release profile of (−)-Epicatechin in artificial saliva at pH 6.2 and 23° C. for EXAMPLE X to XIII with a particle size distribution between 180 μm and 250 μm (Mesh 60).

Series [2] is described as follows: release profile of (−)-Epicatechin, 2 hour in medium pH 1.2 and 2 more hours in medium pH 6.8, at 37° C. The format is physicochemical. The method, then:
Releases for EXAMPLES I TO V.
FIG. 22 features release profile of (−)-Epicatechin at 2 hour in a medium with pH of 1.2 and 2 more hours in a medium with pH of 6.8, at 37° C. Releases for examples X to XIII with a particle size distribution between 250 μm and 425 μm (Mesh 40); and particle size distribution between 180 μm and 250 μm (Mesh 60).

The conditions of series [3]: background statement; cited from earlier work.
The conditions of series [4]: after permanent coronary occlusion; background statement; cited from earlier work.
For series [5] the following is noted: relative to mannitol; background statement; cited from earlier work.

`Oc1cc(O)c2c(c1)O[C@H](c1ccc(O)c(O)c1)[C@H](O)C2` [EPICATECHIN AT 90%, (−)-Epicatechin (2R,3R)]: the “% release” value in series [1] (30 s) came to 75.30%; in series [1] (60 s), 88.70%; in series [1] (120 s), 93.43%; in series [2] (1 h, medium pH 1.2, 37° C.), 98.59%; in series [2] (2 h, medium pH 1.2, 37° C.), 99.94%; in series [2] (3 h, 2 h pH 1.2 then medium pH 6.8, 37° C.), 100.22%. Further, in series [2] (4 h, 2 h pH 1.2 then medium pH 6.8, 37° C.), the “% release” value was 100.84%. Further, the release profile percentages in series [1] (30 s, Table 13) came out at 75.30%; in series [1] (30 s, Table 14), 75.30%; in series [1] (60 s, Table 13) it was 88.70%; in series [1] (60 s, Table 14), 88.70%; in series [1] (120 s, Table 13), 93.43%; in series [1] (120 s, Table 14), 93.43%. The release profile percentages in series [2] (1 h, medium pH 1.2, 37° C., Table 13) is reported as 98.59%; in series [2] (1 h, medium pH 1.2, 37° C., Table 14), 98.59%; in series [2] (2 h, medium pH 1.2, 37° C., Table 13) it was 99.94%; in series [2] (2 h, medium pH 1.2, 37° C., Table 14) it was 99.94%; in series [2] (3 h, 2 h pH 1.2 then pH 6.8, 37° C., Table 13), 100.22%; in series [2] (3 h, 2 h pH 1.2 then pH 6.8, 37° C., Table 14) it was 100.22%. Moreover, the release profile percentages stood at 100.84% in series [2] (4 h, 2 h pH 1.2 then pH 6.8, 37° C., Table 13) and 100.84% in series [2] (4 h, 2 h pH 1.2 then pH 6.8, 37° C., Table 14). Further, the oral bioavailability entry in series [3] is “less than 5%”. In addition, the “reduction in scar (infarct) size” value in series [4] is reported as “approximately 33%”. In addition, the “quenches OH more effectively than mannitol” value in series [5] is given as 100 times.
